Test results: patent publication US12690589B2, “Herbicidal compositions comprising pyroxasulfone” (BASF SE, priority 2024, dated 2026)

Assays:
[1] = system: Setaria verticillata (SETVE); test: Post-emergence application in field trials, herbicidal activity (damage scale 0 to 100%); type: in vivo
Procedure: (§1) In the examples below, using the method of S. R. Colby (1967) “Calculating synergistic and antagonistic responses of herbicide combinations”, Weeds 15, p. 22ff., the value E, which is expected if the activity of the individual active compounds is only additive, was calculated:
(§2) [formula] • wherein • X=percent activity using active herbicide A at an application rate a; • Y=percent activity using active herbicide B (e.g. pyroxasulfone) at an application rate b; • E=expected activity (in %) by A+B at application rates a+b.
(§3) For 3-component mixtures the synergistic response was calculated as described in: Ferry, Nancy; Stanley, Bruce H.; and Armel, Gregory (2005). “DESIGN AND ANALYSIS OF BIOLOGICAL ASSAYS OF MIXTURES,” Conference on Applied Statistics in Agriculture. https://doi.org/10.4148/2475-7772.1133. According to this publication, the Colby calculation can be generalized to a third mixing partner, Z, employing the following formula: […]
(§4) If the value found experimentally is higher than the value E calculated according to Colby, a synergistic effect is present.
(§5) On field test sites, natural weed infestation or seeded weeds were treated post-emergence of the weeds.
(§6) In the field trials, the weeds were treated as indicated below.
(§7) In the following experiments, the herbicidal activity for the individual herbicidal compositions (solo and mixture applications) was assessed at the indicated days after treatment (DAT). The assessments for the damage on undesired weeds caused by the composition was carried out using a scale from 0 to 100%, compared to the untreated control plants. Here, 0 means no damage and 100 means complete destruction of the plants.
(§8) Herbicide A-1 (342 g/l) and pyroxasulfone (500 g/l) were, together with addition of 0.25 v/v % MSO (methylated seed oil) as adjuvant, formulated in 200 l/ha water as distribution medium and sprayed with commercial flat fan nozzles.
(§9) Herbicide A-1 (342 g/l), pyroxasulfone (500 g/l) and trifludimoxazin (500 g/l) were, together with addition of 0.25 v/v % MSO (methylated seed oil) as adjuvant, formulated in 200 l/ha water as distribution medium and sprayed with commercial flat fan nozzles.
(§10) Herbicide A-1 (342 g/I), pyroxasulfone (500 g/l) and glyphosate-isopropylammonium (356 g/l) were, together with addition of 0.25 v/v % MSO (methylated seed oil) as adjuvant, formulated in 200 l/ha water as distribution medium and sprayed with commercial flat fan nozzles.
(§11) Herbicide A-1 (342 g/l), pyroxasulfone (500 g/l) and glufosinate-P-ammonium (211 g/l) were, together with addition of 0.25 v/v % MSO (methylated seed oil) as adjuvant, formulated in 200 l/ha water as distribution medium and sprayed with commercial flat fan nozzles.
(§12) Herbicide A-1 (342 g/l), pyroxasulfone (500 g/l) and 2,4-D-choline (456 g/l) were, together with addition of 0.25 v/v % MSO (methylated seed oil) as adjuvant, formulated in 200 l/ha water as distribution medium and sprayed with commercial flat fan nozzles.

[2] = system: Digitaria sanguinalis (DIGSA); test: as above; type: in vivo
Procedure: as §1, §2, §3, §4, §5, §6, §7, §8, §9, §10, §11, §12

Measured: % Herbicidal activity

Cn1nc(C(F)(F)F)c(CS(=O)(=O)C2=NOC(C)(C)C2)c1OC(F)F [B, pyroxasulfone]
0%: [1]; 7 DAT, stage 21-23, height 8-16 cm, g ai/ha A-1 18, B 70, C-8 840 | [1]; 7 DAT, stage 21-23, height 8-16 cm, g ai/ha A-1 18, B 70, C-12 252 | [1]; 7 DAT, stage 21-23, height 8-16 cm, g ai/ha A-1 18, B 90, C-4 12.5 | [1]; 7 DAT, stage 21-23, height 8-16 cm, g ai/ha A-1 18, B 90, C-8 840 | [1]; 7 DAT, stage 21-23, height 8-16 cm, g ai/ha A-1 18, B 90, C-12 252 | [1]; 21 DAT, stage 21-23, height 8-16 cm, g ai/ha A-1 18, B 90, C-12 252 | [1]; 42 DAT, stage 21-23, height 8-16 cm, g ai/ha A-1 12.5, B 70 | [1]; 42 DAT, stage 21-23, height 8-16 cm, g ai/ha A-1 12.5, B 70, C-12 252 | [1]; 42 DAT, stage 21-23, height 8-16 cm, g ai/ha A-1 18, B 70 | [1]; 42 DAT, stage 21-23, height 8-16 cm, g ai/ha A-1 18, B 90, C-12 252 | [1]; SETVE, growth stage 21-23, height 8-16 cm, B 70 g ai/ha, 7 DAT, Table 4.1 | [1]; SETVE, growth stage 21-23, height 8-16 cm, B 70 g ai/ha, 21 DAT, Table 4.3 | [1]; SETVE, growth stage 21-23, height 8-16 cm, B 90 g ai/ha, 7 DAT, Table 4.1 | [1]; SETVE, growth stage 21-23, height 8-16 cm, B 90 g ai/ha, 21 DAT, Table 4.3 | [1]; Table 8.1, 7 DAT, stage 21-23, height 8-16 cm, g ai/ha A-1 18, B 70, C-12 1066 | [1]; Table 8.2, 21 DAT, stage 21-23, height 8-16 cm, g ai/ha A-1 12.5, B 70, C-12 1066 | [1]; Table 8.4, 42 DAT, stage 21-23, height 8-16 cm, g ai/ha A-1 12.5, B 70, C-12 1066 | [2]; 7 DAT, stage 22, height 10-15 cm, g ai/ha A-1 12.5, B 70, C-4 12.5 | [2]; 7 DAT, stage 22, height 10-15 cm, g ai/ha A-1 18, B 70, C-4 12.5 | [2]; 7 DAT, stage 22, height 10-15 cm, g ai/ha A-1 18, B 70, C-8 840 | [2]; 7 DAT, stage 22, height 10-15 cm, g ai/ha A-1 18, B 70, C-12 252 | [2]; 7 DAT, stage 22, height 10-15 cm, g ai/ha A-1 18, B 90, C-4 12.5 | [2]; 7 DAT, stage 22, height 10-15 cm, g ai/ha A-1 18, B 90, C-8 840 | [2]; 7 DAT, stage 22, height 10-15 cm, g ai/ha A-1 18, B 90, C-12 252 | [2]; 21 DAT, stage 22, height 10-15 cm, g ai/ha A-1 12.5, B 70, C-4 12.5 | [2]; 21 DAT, stage 22, height 10-15 cm, g ai/ha A-1 18, B 70, C-4 12.5 | [2]; 21 DAT, stage 22, height 10-15 cm, g ai/ha A-1 18, B 70, C-12 252 | [2]; 21 DAT, stage 22, height 10-15 cm, g ai/ha A-1 18, B 90, C-4 12.5 | [2]; 21 DAT, stage 22, height 10-15 cm, g ai/ha A-1 18, B 90, C-12 252 | [2]; 42 DAT, stage 22, height 10-15 cm, g ai/ha A-1 12.5, B 70 | [2]; 42 DAT, stage 22, height 10-15 cm, g ai/ha A-1 12.5, B 70, C-4 12.5 | [2]; 42 DAT, stage 22, height 10-15 cm, g ai/ha A-1 18, B 70 | [2]; 42 DAT, stage 22, height 10-15 cm, g ai/ha A-1 18, B 70, C-4 12.5 | [2]; 42 DAT, stage 22, height 10-15 cm, g ai/ha A-1 18, B 70, C-12 252 | [2]; 42 DAT, stage 22, height 10-15 cm, g ai/ha A-1 18, B 90 | [2]; 42 DAT, stage 22, height 10-15 cm, g ai/ha A-1 18, B 90, C-4 12.5 | [2]; 42 DAT, stage 22, height 10-15 cm, g ai/ha A-1 18, B 90, C-12 252 | [2]; DIGSA, growth stage 22, height 10-15 cm, B 70 g ai/ha, 7 DAT, Table 4.1 | [2]; DIGSA, growth stage 22, height 10-15 cm, B 70 g ai/ha, 21 DAT, Table 4.3
